Publication PMC11491487 (Nature Communications, 2024)
Several values for one entry are separate records, joined by “and”; a condition that tells them apart may be missing. Identical values can stand only once. Like-named read-outs stand apart in the source and are kept apart here.

How the values were obtained:
[1] = biological target: T1, chiRyR (Oryctolagus cuniculus, UniProt P11716, C4657I/F4564Y/L4792S/R4563K); assay: biochemical; type: biochemical, rabbit
[2] = biological target: chiRyR-I4657M/G4819E (Oryctolagus cuniculus, UniProt P11716, C4657M/F4564Y/G4819E/L4792S/R4563K); assay: biochemical; type: biochemical, rabbit; conditions: for [3H]ryanodine binding (B/Bmax): 1 μM TET
[3] = biological target: Sf RyR (Spodoptera frugiperda, UniProt A0A4P8L6R5); assay: time-lapse [Ca2+]ER fluorescence assay, HEK293 cells; type: cell-based
[4] = biological target: rRyR1 (Oryctolagus cuniculus, UniProt P11716); assay: as above; type: cell-based, rabbit
[5] = biological target: T1, chiRyR; assay: cell-based; design: species or system rabbit
[6] = Ca2+-dependent [3H]ryanodine binding, mean ± SD, n=4
[7] = Ca2+-dependent [3H]ryanodine binding, mean ± SD, n=4, read-out: EC50 values for Ca2+

For `[Ca+2]` [Ca2+], the IC50 [1, 6] was 670 ± 370 µM, the EC50 [1, 7] was 5 ± 1.1 µM and the IC50 [2, 6] was 590 ± 190 µM. For the same compound, the EC50 [2, 7] was 4.4 ± 2.4 µM.

For `CNC(=O)c1cc(C#N)cc(C)c1NC(=O)c1cc(Cn2nnc(C(F)(F)F)n2)nn1-c1ncccc1Cl` [TET, tetraniliprole], the EC50 [3] was 0.175 µM, the F/F0 ([3]; TET 1e-5 uM) was 0.9606 and 0.9752 and 0.9813 and the F/F0 ([3]; TET 0.001 uM) was 1.004 and 1.002 and 1.001. For the same compound, the F/F0 ([3]; TET 0.01 uM) was 0.3097 and 0.3094 and 0.2868, the F/F0 ([3]; TET 0.1 uM) was 0.2582 and 0.2663 and 0.2776 and the F/F0 ([3]; TET 0.5 uM) was 0.268 and 0.2944 and 0.2596. The F/F0 ([3]; TET 1 uM) was 0.2734 and 0.2934 and 0.2867, the F/F0 ([3]; TET 10 uM) was 0.2774 and 0.2809 and 0.2932 and the F/F0 ([3]; TET 50 uM) was 0.2939 and 0.2698 and 0.3129. The EC50 [1] was 0.0111 ± 0.0009 µM, the “promotion of [3H]ryanodine binding” value ([1]; 1 μM TET) was “promote” and the “[3H]ryanodine binding (B/Bmax)” value ([1]; 1 μM TET, pCa 2.01) was 0.5896 and 0.5427 and 0.6286 and 0.5623. For the same compound, the “[3H]ryanodine binding (B/Bmax)” value ([1]; 1 μM TET, pCa 2.54) was 0.4881 and 0.5388 and 0.5232 and 0.4217, the “[3H]ryanodine binding (B/Bmax)” value ([1]; 1 μM TET, pCa 3.01) was 0.2889 and 0.3787 and 0.4022 and 0.2616 and the “[3H]ryanodine binding (B/Bmax)” value ([1]; 1 μM TET, pCa 3.52) was 0.2967 and 0.3397 and 0.4256 and 0.2811. The “[3H]ryanodine binding (B/Bmax)” value ([1]; 1 μM TET, pCa 3.89) was 0.2811 and 0.328 and 0.3319 and 0.2616, the “[3H]ryanodine binding (B/Bmax)” value ([1]; 1 μM TET, pCa 4.5) was 0.2889 and 0.2655 and 0.3319 and 0.285 and the “[3H]ryanodine binding (B/Bmax)” value ([1]; 1 μM TET, pCa 5) was 0.3163 and 0.2538 and 0.3046 and 0.2694. For the same compound, the “[3H]ryanodine binding (B/Bmax)” value ([1]; 1 μM TET, pCa 5.43) was 0.3436 and 0.285 and 0.2889 and 0.367, the “[3H]ryanodine binding (B/Bmax)” value ([1]; 1 μM TET, pCa 6.01) was 0.2772 and 0.2421 and 0.3319 and 0.3085 and the “[3H]ryanodine binding (B/Bmax)” value ([1]; 1 μM TET, pCa 6.55) was 0.3358 and 0.246 and 0.3826. For the same compound, the “[3H]ryanodine binding (B/Bmax)” value ([1]; 1 μM TET, pCa 6.98) was 0.2616 and 0.2694 and 0.2382 and 0.2108, the F/F0 ([4]; TET 0.01 uM) was 0.9832 and 0.9899 and 0.9753 and the F/F0 ([4]; TET 0.1 uM) was 0.9793 and 0.9852 and 0.9641. For the same compound, the F/F0 ([4]; TET 0.3 uM) was 0.9696 and 0.952 and 0.9539, the F/F0 ([4]; TET 1 uM) was 0.9135 and 0.9295 and 0.9254 and the F/F0 ([4]; TET 3 uM) was 0.8107 and 0.8058 and 0.7756. The F/F0 ([4]; TET 10 uM) was 0.34 and 0.3602 and 0.3556, the F/F0 ([4]; TET 30 uM) was 0.3168 and 0.2562 and 0.2448 and the F/F0 ([4]; TET 100 uM) was 0.2045 and 0.2471 and 0.2529. The EC50 ([4]; diamide insecticides, n = 3, read-out: EC50) was 7.6 µM, the EC50 [2] was 87.8 ± 6.4 µM and the “[3H]ryanodine binding (B/Bmax)” value ([2]; pCa 3.52) was 0.1264 and 0.1119 and 0.1409 and 0.1015. The “[3H]ryanodine binding (B/Bmax)” value ([2]; pCa 3.89) was 0.1367 and 0.1222 and 0.1015, the “[3H]ryanodine binding (B/Bmax)” value ([2]; pCa 4.5) was 0.1326 and 0.1367 and 0.1347 and 0.1885 and the “[3H]ryanodine binding (B/Bmax)” value ([2]; pCa 5) was 0.172 and 0.0953 and 0.1139 and 0.1243. For the same compound, the “[3H]ryanodine binding (B/Bmax)” value ([2]; pCa 5.43) was 0.04765 and 0.0663 and 0.05179 and 0.06008, the EC50 [5] was 0.0461 µM and the F/F0 ([5]; TET 1e-5 uM) was 0.9259 and 0.9674 and 0.9677. For the same compound, the F/F0 ([5]; TET 0.001 uM) was 0.7877 and 0.806 and 0.7759, the F/F0 ([5]; TET 0.01 uM) was 0.2917 and 0.2699 and 0.2537 and the F/F0 ([5]; TET 0.1 uM) was 0.2632 and 0.2374 and 0.2313. The F/F0 ([5]; TET 0.5 uM) was 0.2569 and 0.2462 and 0.2329, the F/F0 ([5]; TET 1 uM) was 0.2399 and 0.24 and 0.2303 and the F/F0 ([5]; TET 10 uM) was 0.2639 and 0.2436 and 0.2393. For the same compound, the F/F0 ([5]; TET 50 uM) was 0.3123 and 0.2617 and 0.3022.
